Results from PubChem BioAssay (NCI).
“And” between values parts separate entries of the source, which are not always exact repeats. Equal values may be shown once.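 Cells were grown in 96-well plates and exposed to each compound for 48 hours at five concentrations; endpoints were interpolated linearly between bracketing concentrations, or set to the highest concentration if not reached. Here, GI50 denotes the concentration required for 50% inhibition of growth. TGI: concentration producing complete growth inhibition.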

What was measured:
Experiment in all cases: NCI tumour cell line growth inhibition, 48 h
[1] = test system: ACHN renal
[2] = test system: CAKI-1 renal
[3] = test system: DMS 114 small cell lung
[4] = test system: DMS 273 small cell lung
[5] = test system: LXFL 529 NSCLC
[6] = test system: M14 melanoma
[7] = test system: NCI-H226 lung
[8] = test system: SR leukemia
[9] = test system: TK-10 renal
[10] = test system: XF 498 CNS
[11] = test system: MCF7 breast
[12] = test system: NCI/ADR-RES ovarian
[13] = test system: MALME-3M melanoma
[14] = test system: HOP-18 NSCLC
[15] = test system: P388 leukemia
[16] = test system: SN12K1 renal

Structure (SMILES)	TGI [1]	TGI [2]	TGI [3]	TGI [4]	TGI [5]	TGI [6]	TGI [7]	TGI [8]	TGI [9]	TGI [10]	TGI [11]	TGI [12]	TGI [13]	TGI [14]	TGI [15]	TGI [16]	GI50 [2]	GI50 [14]	GI50 [8]	GI50 [9]
CC(=O)c1cccc(NC(=O)C(=O)C(C(=O)c2ccccc2F)C2OC(=O)c3ccccc32)c1 (stereo not given)	> 100 µM	> 100 µM	90 µM	> 100 µM	> 100 µM	> 100 µM	67.3 µM	54.9 µM	> 100 µM	> 100 µM	–	–	–	–	–	–	–	–	–	–
CCOC(=O)C1=NN(c2ccccc2)C2=CC(C)=NN(C)C(=S)N21	> 100 µM	> 100 µM	–	–	–	> 100 µM	–	> 100 µM	> 100 µM	–	> 100 µM	> 100 µM	–	–	–	–	–	–	–	–
O=C1CCc2cc3c(cc21)CC1(Cc2cc4c(cc2C1)CCCC4)C3	> 100 µM	–	–	–	–	> 100 µM	–	47.7 µM	> 100 µM	–	> 100 µM	> 100 µM	> 100 µM	–	–	–	–	–	–	–
CC[C@](C)(O)C(=O)O[C@H]1C(=O)O[C@@H]2C[C@H]3C(C)=C[C@H](O)[C@@H](O)[C@]3(C)[C@H]3[C@@]4(O)OC[C@]32[C@@H]1[C@@H](C)[C@H]4O	–	116 µM	17.6 µM	127 µM	–	–	81.2 µM	–	–	66.5 µM	39 µM	> 205 µM	34.1 µM	298 µM	128 µM	32.1 µM	–	–	–	–
COc1cc(C2c3cc4c(cc3[C@@H](NCCCN(C)C)[C@H]3COC(=O)C23)OCO4)cc(OC)c1O (stereo not given in full)	0.369 µM and 0.496 µM	0.351 µM and 0.952 µM	–	2.06 µM and 2.61 µM	25.7 µM and > 20 µM	–	–	–	5.17 µM and 7.61 µM	–	–	–	1.07 µM and 1.44 µM	> 37.5 µM and 16.3 µM	–	–	0.0599 µM and 0.227 µM	3.78 µM and 1.18 µM	0.354 µM and 0.0544 µM	0.992 µM and 2.86 µM
CCOC(=O)/C=C/c1c[nH]c(C(=O)OCC)c1	–	> 100 µM	> 100 µM	> 100 µM	–	–	> 100 µM	–	–	> 100 µM	> 100 µM	> 100 µM	> 100 µM	> 100 µM	> 100 µM	> 100 µM	–	–	–	–
Nc1nc(Cl)cc(NCCCCCCCCCCCCNc2cc(Cl)nc(N)n2)n1	–	–	–	58 µM	53 µM	> 100 µM	66.9 µM	> 100 µM	> 100 µM	26.4 µM	–	–	> 100 µM	> 100 µM	–	–	–	–	–	–
ClCc1ccc2ccc3ccc(CCl)nc3c2n1	–	–	4.26 µM	–	–	–	9.91 µM	–	–	4.45 µM	2.74 µM	3.66 µM	3.69 µM	8.77 µM	7.32 µM	4.4 µM	–	–	–	–
